How the values were obtained:
Test in all cases: relative viability (nuclei count vs DMSO), 5 days (fraction); higher = more cells survive
Dabrafenib + Lapatinib = compound: CC(C)(C)c1nc(-c2cccc(NS(=O)(=O)c3c(F)cccc3F)c2F)c(-c2ccnc(N)n2)s1 [Dabrafenib] + CS(=O)(=O)CCNCc1ccc(-c2ccc3ncnc(Nc4ccc(OCc5cccc(F)c5)c(Cl)c4)c3c2)o1 [Lapatinib] (partner 2 µM)
In short: (§1)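 Relative viability equals treated-well nuclei counts divided by vehicle-well nuclei counts. Counts came from 4× images of lung cancer cell lines grown in 1536-well plates for 5 days after pin-tool dosing on the day after seeding. Dosing used one drug alone or a fixed anchor-drug dose plus five library-drug doses (not always all listed) in √10 steps, and values are medians of duplicate plates.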

VX-702 + Palbociclib = compound: NC(=O)c1ccc(N(C(N)=O)c2c(F)cccc2F)nc1-c1ccc(F)cc1F [VX-702] + CC(=O)c1c(C)c2cnc(Nc3ccc(N4CCNCC4)cn3)nc2n(C2CCCC2)c1=O [Palbociclib] (partner 0.5 µM)
In short: as §1

VX-702 + Luminespib = compound: NC(=O)c1ccc(N(C(N)=O)c2c(F)cccc2F)nc1-c1ccc(F)cc1F [VX-702] + CCNC(=O)c1noc(-c2cc(C(C)C)c(O)cc2O)c1-c1ccc(CN2CCOCC2)cc1 [Luminespib] (partner 0.01 µM)
In short: as §1

VX-702 + Phenformin = compound: NC(=O)c1ccc(N(C(N)=O)c2c(F)cccc2F)nc1-c1ccc(F)cc1F [VX-702] + N=C(N)NC(=N)NCCc1ccccc1 [Phenformin] (partner 250 µM)
In short: as §1

Cell Line | relative viability (Dabrafenib + Lapatinib; first compound 0.003 µM) | relative viability (Dabrafenib + Lapatinib; first compound 0.009487 µM) | relative viability (Dabrafenib + Lapatinib; first compound 0.03 µM) | relative viability (Dabrafenib + Lapatinib; first compound 0.09487 µM) | relative viability (Dabrafenib + Lapatinib; first compound 0.3 µM) | relative viability (VX-702 + Palbociclib; first compound 0.02 µM) | relative viability (VX-702 + Palbociclib; first compound 0.2 µM) | relative viability (VX-702 + Palbociclib; first compound 0.6325 µM) | relative viability (VX-702 + Palbociclib; first compound 2 µM) | relative viability (VX-702 + Luminespib; first compound 0.02 µM) | relative viability (VX-702 + Luminespib; first compound 0.2 µM) | relative viability (VX-702 + Luminespib; first compound 0.6325 µM) | relative viability (VX-702 + Luminespib; first compound 2 µM) | relative viability (VX-702 + Phenformin; first compound 0.02 µM) | relative viability (VX-702 + Phenformin; first compound 0.2 µM) | relative viability (VX-702 + Phenformin; first compound 0.6325 µM) | relative viability (VX-702 + Phenformin; first compound 2 µM)
EMC-BAC-2 | 0.87 | 0.775 | 0.877 | 0.926 | 0.916 | 0.5 | 0.489 | 0.501 | 0.481 | 1.13 | 1.13 | 1.13 | 1.23 | 0.522 | 0.549 | 0.526 | 0.402
EPLC-272H | – | 0.882 | 1 | 0.765 | 1.18 | 0.312 | 0.343 | 0.316 | 0.311 | 0.344 | 0.694 | 0.352 | 0.272 | 0.303 | 0.302 | 0.381 | 0.26
H3255 | 0.186 | 0.264 | 0.213 | 0.316 | 0.247 | 0.304 | 0.317 | 0.318 | 0.315 | 1.09 | 0.803 | 0.957 | 1.11 | 0.352 | 0.344 | 0.371 | 0.386
HARA | 0.648 | 0.683 | 0.565 | 0.751 | 0.955 | 0.278 | 0.227 | 0.226 | 0.254 | 0.743 | 0.75 | 0.58 | 0.947 | 0.433 | 0.42 | 0.599 | 0.569
HCC-15 | 0.788 | 0.809 | 0.891 | 0.739 | 0.732 | 0.732 | 0.639 | 0.724 | 0.491 | 0.26 | 0.295 | 0.288 | 0.349 | 0.536 | 0.441 | 0.525 | 0.557
HCC-44 | 0.996 | 0.982 | 1.11 | 0.86 | 0.964 | 1.01 | 1 | 0.955 | 0.98 | 0.84 | 0.983 | 0.909 | 1.48 | 0.191 | 0.286 | 0.191 | 0.225
HCC-827 | 0.133 | 0.228 | 0.185 | 0.185 | 0.186 | 0.452 | 0.462 | 0.446 | 0.316 | 0.449 | 0.638 | 0.504 | 0.273 | 0.417 | 0.457 | 0.423 | 0.188
HOP-62 | – | 1.07 | 0.822 | 0.889 | 0.784 | 0.487 | 0.479 | 0.451 | 0.551 | 0.926 | 0.899 | 0.916 | 0.962 | 0.809 | 0.656 | 0.698 | 0.708
LC-2-ad | 0.862 | 1.01 | 0.976 | 0.886 | 0.925 | 0.496 | 0.451 | 0.525 | 0.478 | 0.979 | 1.01 | 1.01 | 1.36 | 0.574 | 0.647 | 0.551 | 0.612
LCLC-97TM1 | – | 1.19 | 0.994 | – | 0.916 | 0.192 | 0.23 | 0.195 | 0.3 | 0.613 | 0.768 | 0.747 | 0.743 | 0.439 | 0.434 | 0.43 | 0.482
LK-2 | 0.885 | 1.02 | – | 0.902 | 0.985 | 0.533 | 0.618 | 0.567 | 0.614 | 0.199 | 0.175 | 0.175 | 0.178 | 0.38 | 0.478 | 0.354 | 0.387
LOU-NH91 | – | 0.789 | 0.683 | 0.772 | 0.802 | 0.554 | 0.532 | 0.544 | 0.536 | 0.355 | 0.3 | 0.346 | 0.292 | 0.796 | 0.819 | 0.807 | 0.504
LU99A | 0.974 | 0.971 | 0.994 | 0.852 | 0.751 | 0.407 | 0.387 | 0.389 | 0.34 | 0.27 | 0.204 | 0.267 | 0.189 | 0.957 | 0.851 | 0.792 | 0.643
LXF-289 | 0.867 | 0.907 | 1.11 | 1 | 1.09 | 0.616 | 0.563 | 0.59 | 0.616 | 0.689 | 0.732 | 0.659 | 0.789 | 0.538 | 0.534 | 0.5 | 0.527
NCI-H23 | – | 1.21 | 1.08 | 0.712 | 1.02 | 0.492 | 0.443 | 0.544 | 0.559 | 0.196 | 0.189 | 0.274 | 0.215 | 0.787 | 0.77 | 0.884 | 0.875
NCI-H322M | – | 0.657 | – | 0.584 | 0.559 | 0.458 | 0.48 | 0.489 | 0.449 | 0.856 | 0.917 | 0.759 | 0.88 | 0.744 | 0.757 | 0.742 | 0.915
NCI-H358 | – | 0.53 | 0.369 | 0.446 | 0.465 | 0.127 | 0.141 | 0.134 | 0.142 | 0.245 | 0.416 | 0.583 | 0.4 | 0.318 | 0.293 | 0.289 | 0.429
NCI-H460 | 1.04 | 1.03 | 1.05 | 0.925 | 0.83 | 0.187 | 0.156 | 0.21 | 0.118 | 0.0333 | 0.0359 | 0.0358 | 0.0313 | 0.532 | 0.551 | 0.608 | 0.373
NCI-H520 | 0.856 | 0.867 | 0.642 | 0.816 | 0.727 | 0.229 | 0.275 | 0.191 | 0.231 | 0.189 | 0.245 | 0.221 | 0.239 | 0.67 | 0.648 | 0.525 | 0.535
